Data set [1] is described as follows: MTD of repeat-dose intraperitoneal administration. It is filed as in vivo, SCID mice. The settings on record: for MTD at 504 h: male, SCID (Fox Chase C.B-17/IcrTac-scidfDF), mouse, in vivo, ip. The procedure: Determinations of a maximal tolerated dose (MTD) of repeat-dose intraperitoneal (i.p.) administration of MSI-344 or MSI-1857 in 60 SCID mice were done. Mice were injected with various doses of MSI-344 or MSI-1857 twice or thrice per week. Survival and body weight were monitored. On a twice per week dosing schedule, the MTDs of MSI-344 and MSI-1857 were 12 and 134 mg/kg/week, respectively. […] On a thrice per week dosing schedule, no deaths occurred in any groups, with high dose groups of MSI-344 and MSI-1857 receiving 90 mg/kg/week and […], respectively. A transient body weight loss was seen after initial dosing in most MSI-344 and MSI-1857 groups. No body weight loss greater than 6% occurred in any group on the thrice per week dosing schedule.
To determine estimates of MTDs of MSI-344 and MSI-1857 when administered intraperitoneally on repeat-dose regimens in SCID mice. The selection of SCID mice was based on the future plans of using this strain as host for xenograft human tumor efficacy models, and a pre-requisite for determining MTD for chronic administration that may be used during the efficacy model.
SCID mice are immunocompromised and therefore they were housed and handled in sterile environments. They had access to sterile water and sterilized chow ad lib.
A 1 mg/mL solution of MSI-344 was made in saline (0.9% sodium chloride injection USP, Abbott, North Chicago, Ill.) corrected for peptide content. Solutions of MSI-344 at concentrations of 0.6, 0.3, and 0.1 mg/mL were made by diluting the 1 mg/mL solution using saline as diluent. A 10 mg/mL solution of MSI-1857 was made in saline.
Solutions of MSI-1857 at concentrations of 6.7, 3.3, 3, 2, and 1 mg/mL were made by diluting the 10 mg/mL solution using saline as diluent.
Mice (four mice per dose group) were intraperitoneally administered MSI-344 or MSI-1857 using an injection volume of 10 mL/kg of the appropriate solution concentration on a twice per week (Groups 1 through 7) or thrice per week (Groups 8 through 15) dosing schedule every week for 20 weeks. Survival was monitored daily and body weights were recorded three times per week An interim analysis was performed at 3 weeks and the results of this interim analysis is presented in the present report.

Data set [2] deals with A-549 human lung carcinoma cells. It counts as cell-based. The conditions noted are these: 24 h. The procedure:
(§1) Human lung carcinoma cells, A-549 (ATCC), and human breast carcinoma cells, MDA-435 (from Sandoz), were grown in Ham's F12K medium (GIBCO-BRL) supplemented with […] fetal bovine serum. Human chronic myelogenous leukemia cells, K-562 (ATCC), were maintained in RPMI 1640 medium (GIBCO-BRL) supplemented with 10% fetal bovine serum. Human melanoma cell line, WM 1617 (from the Wistar Institute), was maintained in 2% Tumor media.
(§2) Cytotoxicity assays were performed on the cell lines described above using CytoLite (Packard Instrument Company) following the manufacture's instruction. Briefly, 2×10^4cells/well were seeded into black, 96-well ViewPlates (Packard Instrument Company) in 100 μl/well growth medium. Ser. dilutions of Magainin peptides were then added into the cells and the plates incubated for 24 hours in a humidified 5% CO2 atmosphere at 37° C. Following incubation, 25 μl/well of CytoLite activator solution was added followed by 125 μl/well of amplifier solution. Luminescence was measured on TopCount Microplate Scintillation and Luminescence counter (Packard Instrument Company) using a 1 second count time in SPC (single photon counting) mode at 25 ° C. All assays were performed in triplicate. The peptides tested in this assay were MSI-78(SEQ ID NO: 154 —NH2), MSI-1858(SEQ ID NO: 154 —NH2 Methane Sulfonate), MSI-344(SEQ ID NO: 154 —OH) and MSI-1857(SEQ ID NO: 154 —OH Methane Sulfonate). The results of these assays are shown in FIGS. 2-9 with the corresponding IC50 values in Table VIII. In all cases the activity of the methane sulfonated peptide was as good or better than the parent peptide as indicated by both the survival curves and the IC50 values.

The subject of data set [3] is WM 1617 human melanoma cells. It is filed as cell-based. The conditions noted are these: 24 h. The procedure: as §1, §2
Data set [4] concerns K-562 human chronic myelogenous leukemia cells. It counts as cell-based. The conditions noted are these: 24 h. The procedure:
as §1, §2

Data set [5] has as its system MDA-435 human breast carcinoma cells. It is filed as cell-based. The settings on record: 24 h. The procedure: as §1, §2
The next data set concerns S. aureus ATCC 29213. It is filed as cell-based. The conditions noted are these: ATCC 29213.

Like-named read-outs stand apart in the source and are kept apart here. Where no end group is shown, it is not given here.

As usually defined, the IC50 is the midpoint of a concentration-inhibition curve.

Take GIGKFLKKAKKFGKAFVKILKK [MSI-344]: the “effect of initial dosings on body weight” value in data set [1] (all surviving groups except the low dose group on the thrice-per-week schedule) is “dose-dependent transient body weight loss”. Also, the “MTD, thrice per week dosing schedule” value in data set [1] (i.p., SCID mice, interim analysis at 3 weeks) is “greater than or equal to 18 mg/kg/week”. For the same sequence, the MTD at 504 h in data set [1] (SCID mice, interim analysis at 3 weeks, read-out: MTD, thrice per week dosing schedule) is at least 2.57 mg/kg/day; in data set [1] (SCID mice, interim analysis at 3 weeks, read-out: MTD, twice per week dosing schedule (converted)), 1.71 mg/kg/day. Also, the IC50 in data set [2] turned out to be 10 µM; in data set [3], 5 µM; in data set [4], 20 µM; in data set [5] it was 8 µM. In addition, the “MIC S. aureus ATCC 29213” value with S. aureus ATCC 29213 was 128 mg/L.

The values above are taken from patent publication US6348445B1, “Biologically active peptides with reduced toxicity in animals and a method for preparing same” (priority 1992, dated 2002).
